Test results taken from patent US20130029962A1, “Substituted Heteroaromatic Pyrazole-Containing Carboxamide and Urea Compounds as Vanilloid Receptor Ligands” (Gruenenthal GmbH, priority 2011, published 2013).

target: T1, vanilloid receptor 1 (VR1/TRPV1 receptor) (Homo sapiens, UniProt Q8NER1); test: Functional testing on the vanilloid receptor 1 (VR1/TRPV1): FLIPR Ca2+ influx assay, displacement of capsaicin; assay type: cell-based, human being; set-up: key to mode of action at VR1/TRPV1 (AG, pAG, NE), Cap: AG=agonist; NE=no effect; pAG=partial agonist; conditions: 5 μM compound; capsaicin (Cap); human being; read-out: inhibition (as a percentage) at the concentration after @, Cap
T1 construct: expressed in transfected cells; host or cells: CHO K1
T1 sequence (Q8NER1 whole entry): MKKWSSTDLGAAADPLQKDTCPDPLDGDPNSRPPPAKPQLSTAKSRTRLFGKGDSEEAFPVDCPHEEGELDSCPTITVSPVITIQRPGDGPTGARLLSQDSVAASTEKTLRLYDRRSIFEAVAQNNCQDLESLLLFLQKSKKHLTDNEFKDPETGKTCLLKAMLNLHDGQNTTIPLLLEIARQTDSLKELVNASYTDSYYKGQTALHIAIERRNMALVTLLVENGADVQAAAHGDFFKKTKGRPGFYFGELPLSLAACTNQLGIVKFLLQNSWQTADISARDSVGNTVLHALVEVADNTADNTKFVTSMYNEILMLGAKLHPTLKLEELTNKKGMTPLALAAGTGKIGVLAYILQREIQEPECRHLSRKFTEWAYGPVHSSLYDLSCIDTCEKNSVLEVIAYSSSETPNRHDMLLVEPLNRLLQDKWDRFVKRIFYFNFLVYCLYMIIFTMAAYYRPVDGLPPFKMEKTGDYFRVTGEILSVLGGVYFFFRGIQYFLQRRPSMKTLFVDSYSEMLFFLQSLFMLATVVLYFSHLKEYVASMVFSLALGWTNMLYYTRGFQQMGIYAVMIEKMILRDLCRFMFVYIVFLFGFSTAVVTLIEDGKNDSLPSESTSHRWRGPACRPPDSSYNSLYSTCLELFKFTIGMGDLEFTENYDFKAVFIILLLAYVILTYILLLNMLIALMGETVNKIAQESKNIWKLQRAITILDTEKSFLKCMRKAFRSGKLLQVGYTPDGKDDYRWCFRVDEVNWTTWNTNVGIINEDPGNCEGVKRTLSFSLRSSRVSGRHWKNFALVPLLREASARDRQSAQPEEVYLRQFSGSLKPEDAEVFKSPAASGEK
Experimental: Furthermore, preference may be given to compounds according to the invention that cause a 50 percent displacement of capsaicin, which is present at a concentration of 100 nM, in a FLIPR assay with CHO K1 cells which were transfected with the human VR1 gene at a concentration of less than 2,000 nM, preferably less than 1,000 nM, particularly preferably less than 300 nM, most particularly preferably less than 100 nM, even more preferably less than 75 nM, additionally preferably less than 50 nM, most preferably less than 10 nM.
In the process, the Ca^2+ influx is quantified in the FLIPR assay with the aid of a Ca^2+-sensitive dye (type Fluo-4, Molecular Probes Europe BV, Leiden, the Netherlands) in a fluorescent imaging plate reader (FLIPR, Molecular Devices, Sunnyvale, USA), as described hereinafter. […]
The number of cells in the suspension is set to 3×10^5 per mL and 150 μL of this suspension are in each case introduced into a recess in the cell culture plates coated as described hereinbefore. In the incubator the plates are left for two to three days at 37° C., 5% by volume of CO2 and 95% relative humidity. Subsequently, the cells are loaded with 2 μM of Fluo-4 and 0.01% by volume of Pluronic F127 (Molecular Probes Europe BV, Leiden, the Netherlands) in HBSS buffer (Hank's buffered saline solution, Gibco Invitrogen GmbH, Karlsruhe, Germany) for 30 min at 37° C., washed 3 times with HBSS buffer and after further incubation for 15 minutes at room temperature used for Ca^2+ measurement in a FLIPR assay. The Ca^2+-dependent fluorescence is in this case measured before and after the addition of substances (λex=488 nm, λem=540 nm). Quantification is carried out by measuring the highest fluorescence intensity (FC, fluorescence counts) over time.
The FLIPR protocol consists of 2 substance additions. First the compounds to be tested (10 μM) are pipetted onto the cells and the Ca^2+ influx is compared with the control (capsaicin 10 μM). This provides the result in % activation based on the Ca^2+ signal after the addition of 10 μM of capsaicin (CP). After 5 minutes' incubation, 100 nM of capsaicin are applied and the Ca^2+ influx is also determined. Desensitising agonists and antagonists lead to suppression of the Ca^2+ influx. The % inhibition is calculated compared to the maximum achievable inhibition with 10 μM of capsazepine. Triple analyses (n=3) are carried out and repeated in at least 3 independent experiments (N=4).
Starting from the percentage displacement caused by different concentrations of the compounds to be tested of general formula I, IC50 inhibitory concentrations which cause a 50-percent displacement of capsaicin were calculated. Ki values for the test substances were obtained by conversion by means of the Cheng-Prusoff equation (Cheng, Prusoff; Biochem. Pharmacol. 22, 3099-3108, 1973).
The affinity of the compounds according to the invention for the vanilloid receptor 1 (VR1/TRPV1 receptor) was determined as described above (pharmacological method I).

| Compound | inhibition at 5 µM [%] |
| --- | --- |
| CC(C(=O)NCc1cc(C(F)(F)F)nn1-c1cccc(Cl)c1)c1ccc(C(=O)Nc2ccc(C(F)(F)F)cc2)nc1 (stereo not shown) [Example 59, 5-(1-((1-(3-chlorophenyl)-3-(trifluoromethyl)-1H-pyrazol-5-yl)methylamino)-1-oxopropan-2-yl)-N-(4-(trifluoromethyl)phenyl)picolinamide] | 24 |
| CC(C(=O)NCc1cc(C(F)(F)F)nn1-c1cccc(Cl)c1)c1cnc(C(=O)Nc2ccccc2)nc1 (stereo not shown) [Example 62, 5-(1-((1-(3-chlorophenyl)-3-(trifluoromethyl)-1H-pyrazol-5-yl)methylamino)-1-oxopropan-2-yl)-N-phenylpyrimidine-2-carboxamide] | 53 |
| COCCNc1ccc(NC(=O)NCc2cc(C(C)(C)C)nn2-c2cccc(Cl)c2)cn1 [Example 68, 1-((3-tert-butyl-1-(3-chlorophenyl)-1H-pyrazol-5-yl)methyl)-3-(6-(2-methoxyethylamino)pyridin-3-yl)urea] | 73 |

same assay, conditions: capsaicin (Cap) as stimulus; Ki from IC50 by Cheng-Prusoff; read-out: (f) Ki (human being) [nM] Cap

| Compound | Ki [nM] |
| --- | --- |
| CC(C(=O)NCc1cc(C(C)(C)C)nn1-c1cccc(Cl)c1)c1ccc(C(=O)Nc2ccc(F)cc2)nc1 (stereo not shown) [Example 60, 5-(1-((3-tert-butyl-1-(3-chlorophenyl)-1H-pyrazol-5-yl)methylamino)-1-oxopropan-2-yl)-N-(4-fluorophenyl)picolinamide] | 4 |
| CC(C(=O)NCc1cc(C(C)(C)C)nn1-c1cccc(Cl)c1)c1ccc(C(=O)Nc2ccc(C(F)(F)F)cc2)nc1 (stereo not shown) [Example 61, 5-(1-((3-tert-butyl-1-(3-chlorophenyl)-1H-pyrazol-5-yl)methylamino)-1-oxopropan-2-yl)-N-(4-(trifluoromethyl)phenyl)picolinamide] | 45 |
| CC(C(=O)NCc1cc(C(F)(F)F)nn1-c1cccc(Cl)c1)c1cnc(C(=O)Nc2ccc(F)cc2)nc1 (stereo not shown) [Example 63, 5-(1-((1-(3-chlorophenyl)-3-(trifluoromethyl)-1H-pyrazol-5-yl)methylamino)-1-oxopropan-2-yl)-N-(4-fluorophenyl)pyrimidine-2-carboxamide] | 6 |
| CC(C(=O)NCc1cc(C(F)(F)F)nn1-c1cccc(Cl)c1)c1cnc(C(=O)Nc2ccc(C(F)(F)F)cc2)nc1 (stereo not shown) [Example 64, 5-(1-((1-(3-chlorophenyl)-3-(trifluoromethyl)-1H-pyrazol-5-yl)methylamino)-1-oxopropan-2-yl)-N-(4-(trifluoromethyl)phenyl)pyrimidine-2-carboxamide] | 61 |
| CC(C(=O)NCc1cc(C(C)(C)C)nn1-c1cccc(Cl)c1)c1cnc(C(=O)Nc2ccccc2)nc1 (stereo not shown) [Example 65, 5-(1-((3-tert-butyl-1-(3-chlorophenyl)-1H-pyrazol-5-yl)methylamino)-1-oxopropan-2-yl)-N-phenylpyrimidine-2-carboxamide] | 70 |
| CC(C(=O)NCc1cc(C(C)(C)C)nn1-c1cccc(Cl)c1)c1cnc(C(=O)Nc2ccc(F)cc2)nc1 (stereo not shown) [Example 66, 5-(1-((3-tert-butyl-1-(3-chlorophenyl)-1H-pyrazol-5-yl)methylamino)-1-oxopropan-2-yl)-N-(4-fluorophenyl)pyrimidine-2-carboxamide] | 3 |
| CC(C(=O)NCc1cc(C(C)(C)C)nn1-c1cccc(Cl)c1)c1cnc(C(=O)Nc2ccc(C(F)(F)F)cc2)nc1 (stereo not shown) [Example 67, 5-(1-((3-tert-butyl-1-(3-chlorophenyl)-1H-pyrazol-5-yl)methylamino)-1-oxopropan-2-yl)-N-(4-(trifluoromethyl)phenyl)pyrimidine-2-carboxamide] | 13 |
| COCCNc1ccc(NC(=O)NCc2cc(C(F)(F)F)nn2-c2cccc(Cl)c2)cn1 [Example 69, 1-((1-(3-chlorophenyl)-3-(trifluoromethyl)-1H-pyrazol-5-yl)methyl)-3-(6-(2-methoxyethylamino)pyridin-3-yl)urea] | 51 |
| CC(C)(C)c1cc(CNC(=O)Nc2ccc(NCCO)nc2)n(-c2cccc(Cl)c2)n1 [Example 70, 1-((3-tert-butyl-1-(3-chlorophenyl)-1H-pyrazol-5-yl)methyl)-3-(6-(2-hydroxyethylamino)pyridin-3-yl)urea] | 3 |

same assay, conditions: capsaicin (Cap); human being

| Compound | mode of action at VR1/TRPV1 (AG, pAG, NE), Cap |
| --- | --- |
| COCCNc1ccc(NC(=O)NCc2cc(C(C)(C)C)nn2-c2cccc(Cl)c2)cn1 [Example 68, 1-((3-tert-butyl-1-(3-chlorophenyl)-1H-pyrazol-5-yl)methyl)-3-(6-(2-methoxyethylamino)pyridin-3-yl)urea] | AG |
